# Molecular target: T1, full length AKT E17K (Homo sapiens, UniProt P31749, E17K)
# T1 construct: host or cells: HEK-293 (ATCC CRL-1573)
# Assay: NanoBRET Target Engagement (TE) Assay
# Format: cell-based
# Settings: competitive displacement of tracer in cells, read-out: AKT1 E17K IC50
# In short: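 Compound and tracer incubated 2 h before luminescence at donor 450 nm and acceptor 600 nm, with extracellular signal inhibited. EC50 by sigmoidal variable-slope regression.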
# T1 sequence (P31749 whole entry E17K): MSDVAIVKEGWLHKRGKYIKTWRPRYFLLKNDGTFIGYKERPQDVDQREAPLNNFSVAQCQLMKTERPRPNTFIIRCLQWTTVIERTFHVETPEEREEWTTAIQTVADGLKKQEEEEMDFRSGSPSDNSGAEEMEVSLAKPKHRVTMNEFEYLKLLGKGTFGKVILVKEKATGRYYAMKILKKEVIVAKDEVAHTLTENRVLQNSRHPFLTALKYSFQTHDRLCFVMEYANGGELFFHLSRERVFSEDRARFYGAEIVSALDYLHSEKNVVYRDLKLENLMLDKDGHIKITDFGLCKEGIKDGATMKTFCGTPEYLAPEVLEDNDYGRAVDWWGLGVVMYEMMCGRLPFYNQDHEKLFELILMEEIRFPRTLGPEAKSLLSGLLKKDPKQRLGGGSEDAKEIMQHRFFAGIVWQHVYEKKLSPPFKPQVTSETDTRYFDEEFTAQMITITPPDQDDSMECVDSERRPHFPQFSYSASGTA
smiles,measurement,value
"N#Cc1nccc(NC2CCN(Cc3ccc(-n4c(-c5cccnc5N)nc5ccc(C(=O)O)nc54)cc3)CC2)n1 [Example 415, 2-(2-Aminopyridin-3-yl)-3-(4-((4-((2-cyanopyrimidin-4-yl)amino)piperidin-1-yl)methyl)phenyl)-3H-imidazo[4,5-b]pyridine-5-carboxylic acid]",IC50,600 to 10000 nM
"N#Cc1nccc(NC2CCN(Cc3ccc(-n4c(-c5cccnc5N)nc5ccc(OCF)nc54)cc3)CC2)n1 [Example 416, 4-((1-(4-(2-(2-Aminopyridin-3-yl)-5-(fluoromethoxy)-3H-imidazo[4,5-b]pyridin-3-yl)benzyl)piperidin-4-yl)amino)pyrimidine-2-carbonitrile]",IC50,< 15 nM
"N#Cc1nccc(NC2CCN(Cc3ccc(-n4c(-c5cccnc5N)nc5ccc(C6CCOC6)nc54)cc3)CC2)n1 (stereo not drawn) [Example 417, 4-((1-(4-(2-(2-Aminopyridin-3-yl)-5-(tetrahydrofuran-3-yl)-3H-imidazo[4,5-b]pyridin-3-yl)benzyl)piperidin-4-yl)amino)pyrimidine-2-carbonitrile]",IC50,< 15 nM
"N#Cc1ccc(-c2ccc3nc(-c4cccnc4N)n(-c4ccc(CN5CCC(Nc6ccnc(C#N)n6)CC5)cc4)c3n2)nc1 [Example 418, 4-((1-(4-(2-(2-Aminopyridin-3-yl)-5-(5-cyanopyridin-2-yl)-3H-imidazo[4,5-b]pyridin-3-yl)benzyl)piperidin-4-yl)amino)pyrimidine-2-carbonitrile]",IC50,15 to 60 nM
"N#Cc1ccc(-c2ccc3nc(-c4cccnc4N)n(-c4ccc(CN5CCC(Nc6ccnc(C#N)n6)CC5)cc4)c3n2)cn1 [Example 419, 4-((1-(4-(2-(2-Aminopyridin-3-yl)-5-(6-cyanopyridin-3-yl)-3H-imidazo[4,5-b]pyridin-3-yl)benzyl)piperidin-4-yl)amino)pyrimidine-2-carbonitrile]",IC50,< 15 nM
"N#Cc1nccc(NC2CCN(Cc3ccc(-n4c(-c5cccnc5N)nc5ccc(C6COC6)nc54)cc3)CC2)n1 [Example 420, 4-((1-(4-(2-(2-Aminopyridin-3-yl)-5-(oxetan-3-yl)-3H-imidazo[4,5-h]pyridin-3-yl)benzyl)piperidin-4-yl)amino)pyrimidine-2-carbonitrile]",IC50,< 15 nM
"COc1ccc(-c2ccc3nc(-c4cccnc4N)n(-c4ccc(CN5CCC(Nc6ccnc(C#N)n6)CC5)cc4)c3n2)cc1 [Example 421, 4-((1-(4-(2-(2-Aminopyridin-3-yl)-5-(4-methoxyphenyl)-3H-imidazo[4,5-b]pyridin-3-yl)benzyl)piperidin-4-yl)amino)pyrimidine-2-carbonitrile]",IC50,< 15 nM
"COc1ccccc1-c1ccc2nc(-c3cccnc3N)n(-c3ccc(CN4CCC(Nc5ccnc(C#N)n5)CC4)cc3)c2n1 [Example 422, 4-((1-(4-(2-(2-Aminopyridin-3-yl)-5-(2-methoxyphenyl)-3H-imidazo[4,5-b]pyridin-3-yl)benzyl)piperidin-4-yl)amino)pyrimidine-2-carbonitrile]",IC50,< 15 nM
"N#Cc1nccc(NC2CCN(Cc3ccc(-n4c(-c5cccnc5N)nc5ccc(OC(F)(F)F)nc54)cc3)CC2)n1 [Example 423, 4-((1-(4-(2-(2-Aminopyridin-3-yl)-5-(trifluoromethoxy)-3H-imidazo[4,5-b]pyridin-3-yl)benzyl)piperidin-4-yl)amino)pyrimidine-2-carbonitrile]",IC50,60 to 600 nM
"N#Cc1nccc(N2CCN(Cc3ccc(-n4c(-c5cccnc5N)nc5ccc(-c6cccnc6C#N)nc54)cc3)CC2)n1 [Example 424, 4-(4-(4-(2-(2-Aminopyridin-3-yl)-5-(2-cyanopyridin-3-yl)-3H-imidazo[4,5-b]pyridin-3-yl)benzyl)piperazin-1-yl)pyrimidine-2-carbonitrile]",IC50,15 to 60 nM
"CC(C)Oc1ccc2nc(-c3cccnc3N)n(-c3ccc(CN4CCC(Nc5ccnc(C#N)n5)CC4)cc3)c2n1 [Example 425, 4-((1-(4-(2-(2-Aminopyridin-3-yl)-5-isopropoxy-3H-imidazo[4,5-b]pyridin-3-yl)benzyl)piperidin-4-yl)amino)pyrimidine-2-carbonitrile]",IC50,< 15 nM
"N#Cc1nccc(NN2CCN(Cc3ccc(-n4c(-c5cccnc5N)nc5ccc(-c6ccccc6)nc54)cc3)CC2)n1 [Example 426, 4-((4-(4-(2-(2-Aminopyridin-3-yl)-5-phenyl-3H-imidazo[4,5-b]pyridin-3-yl)benzyl)piperazin-1-yl)amino)pyrimidine-2-carbonitrile]",IC50,< 15 nM
"[2H]C([2H])([2H])Oc1ccc2nc(-c3cccnc3N)n(-c3ccc(CN4CCC(Nc5ccnc(C#N)n5)CC4)cc3)c2n1 [Example 427, 4-((1-(4-(2-(2-Aminopyridin-3-yl)-5-(methoxy-d3)-3H-imidazo[4,5-b]pyridin-3-yl)benzyl)piperidin-4-yl)amino)pyrimidine-2-carbonitrile]",IC50,< 15 nM
"N#Cc1cccc(-c2ccc3nc(-c4cccnc4N)n(-c4ccc(CN5CCC(Nc6ccnc(C#N)n6)CC5)cc4)c3n2)n1 [Example 428, 4-((1-(4-(2-(2-Aminopyridin-3-yl)-5-(6-cyanopyridin-2-yl)-3H-imidazo[4,5-b]pyridin-3-yl)benzyl)piperidin-4-yl)amino)pyrimidine-2-carbonitrile]",IC50,15 to 60 nM
"N#Cc1cc(-c2ccc3nc(-c4cccnc4N)n(-c4ccc(CN5CCC(Nc6ccnc(C#N)n6)CC5)cc4)c3n2)ccn1 [Example 429, 4-((1-(4-(2-(2-Aminopyridin-3-yl)-5-(2-cyanopyridin-4-yl)-3H-imidazo[4,5-b]pyridin-3-yl)benzyl)piperidin-4-yl)amino)pyrimidine-2-carbonitrile]",IC50,< 15 nM
"N#Cc1cncc(-c2ccc3nc(-c4cccnc4N)n(-c4ccc(CN5CCC(Nc6ccnc(C#N)n6)CC5)cc4)c3n2)c1 [Example 430, 4-((1-(4-(2-(2-Aminopyridin-3-yl)-5-(5-cyanopyridin-3-yl)-3H-imidazo[4,5-b]pyridin-3-yl)benzyl)piperidin-4-yl)amino)pyrimidine-2-carbonitrile]",IC50,< 15 nM
"N#Cc1nccc(NC2CCN(Cc3ccc(-n4c(-c5cccnc5N)nc5ccc(-c6cccnc6)nc54)cc3)CC2)n1 [Example 431, 4-((1-(4-(2-(2-Aminopyridin-3-yl)-5-(pyridin-3-yl)-3H-imidazo[4,5-b]pyridin-3-yl)benzyl)piperidin-4-yl)amino)pyrimidine-2-carbonitrile]",IC50,< 15 nM
N#Cc1nccc(N2CCN(Cc3ccc(-n4c(-c5cccnc5N)nc5ccc(-c6cccnc6)nc54)cc3)CC2)n1 [Example 432],IC50,< 15 nM
"N#Cc1nccc(NC2CCN(Cc3ccc(-n4c(-c5cccnc5N)nc5ccc(-c6ccncc6)nc54)cc3)CC2)n1 [Example 433, 4-((1-(4-(2-(2-Aminopyridin-3-yl)-5-(pyridin-4-yl)-3H-imidazo[4,5-b]pyridin-3-yl)benzyl)piperidin-4-yl)amino)pyrimidine-2-carbonitrile]",IC50,< 15 nM
"N#Cc1ncnc(NC2CC3(CCN(Cc4ccc(-n5c(-c6cccnc6N)nc6ccc(N7CCOCC7)nc65)cc4)CC3)C2)n1 [Example 434, 4-((7-(4-(2-(2-Aminopyridin-3-yl)-5-morpholino-3H-imidazo[4,5-b]pyridin-3-yl)benzyl)-7-azaspiro[3.5]nonan-2-yl)amino)-1,3,5-triazine-2-carbonitrile]",IC50,15 to 60 nM
"CSc1ccc2nc(-c3cccnc3N)n(-c3ccc(CN4CCC(Nc5ccnc(C#N)n5)CC4)cc3)c2n1 [Example 435, 4-((1-(4-(2-(2-Aminopyridin-3-yl)-5-(methylthio)-3H-imidazo[4,5-b]pyridin-3-yl)benzyl)piperidin-4-yl)amino)pyrimidine-2-carbonitrile]",IC50,< 15 nM
"CS(=O)(=O)c1ccc2nc(-c3cccnc3N)n(-c3ccc(CN4CCC(Nc5ccnc(C#N)n5)CC4)cc3)c2n1 [Example 436, 4-((1-(4-(2-(2-Aminopyridin-3-yl)-5-(methylsulfonyl)-3H-imidazo[4,5-b]pyridin-3-yl)benzyl)piperidin-4-yl)amino)pyrimidine-2-carbonitrile]",IC50,60 to 600 nM
"COc1ccnc(-c2ccc3nc(-c4cccnc4N)n(-c4ccc(CN5CCC(Nc6ccnc(C#N)n6)CC5)cc4)c3n2)c1 [Example 437, 4-((1-(4-(2-(2-Aminopyridin-3-yl)-5-(4-methoxypyridin-2-yl)-3H-imidazo[4,5-b]pyridin-3-yl)benzyl)piperidin-4-yl)amino)pyrimidine-2-carbonitrile]",IC50,< 15 nM
"Cn1cc(-c2ccc3nc(-c4cccnc4N)n(-c4ccc(CN5CCC(Nc6ccnc(C#N)n6)CC5)cc4)c3n2)nn1 [Example 438, 4-((1-(4-(2-(2-Aminopyridin-3-yl)-5-(1-methyl-1H-1,2,3-triazol-4-yl)-3H-imidazo[4,5-b]pyridin-3-yl)benzyl)piperidin-4-yl)amino)pyrimidine-2-carbonitrile]",IC50,< 15 nM
"COc1cc(-c2ccc3nc(-c4cccnc4N)n(-c4ccc(CN5CCC(Nc6ccnc(C#N)n6)CC5)cc4)c3n2)ccc1F [Example 439, 4-((1-(4-(2-(2-Aminopyridin-3-yl)-5-(4-fluoro-3-methoxyphenyl)-3H-imidazo[4,5-h]pyridin-3-yl)benzyl)piperidin-4-yl)amino)pyrimidine-2-carbonitrile]",IC50,< 15 nM
"CC(=O)Nc1cccc(-c2ccc3nc(-c4cccnc4N)n(-c4ccc(CN5CCC(Nc6ccnc(C#N)n6)CC5)cc4)c3n2)c1 [Example 440, N-(3-(2-(2-Aminopyridin-3-yl)-3-(4-((4-((2-cyanopyrimidin-4-yl)amino)piperidin-1-yl)methyl)phenyl)-3H-imidazo[4,5-b]pyridin-5-yl)phenyl)acetamide]",IC50,< 15 nM
"[2H]C([2H])([2H])N(c1ccnc(C#N)n1)C1CCN(Cc2ccc(-n3c(-c4cccnc4N)nc4ccc(-c5ccc(F)cc5)nc43)cc2)CC1 [Example 441, 4-((1-(4-(2-(2-Aminopyridin-3-yl)-5-(4-fluorophenyl)-3H-imidazo[4,5-b]pyridin-3-yl)benzyl)piperidin-4-yl)(methyl-d3)amino)pyrimidine-2-carbonitrile]",IC50,< 15 nM
